# Experimental data published in patent US10383831B2, “2,4,6-trialkoxystryl aryl sulfones, sulfonamides and carboxamides, and methods of preparation and use” (Temple University—Of The Commonwealth System Of Higher …, priority 2015, dated 2019).
# Legend:
# Assay type in all cases: cell-based
# tumor cell lines = assay: Cytotoxicity assay, comparison across the cell lines listed in Table 18
# Protocol: (§1) Cells of the cell lines listed in Table 18 (1×10^5) were plated into 6-well dishes. Twenty-four hours later, the compound of Example 1, i.e., (Z)-ethyl 3-((2-methoxy-5-(((E)-2,4,6-trimethoxystyrylsulfonyl)methyl) phenyl)amino)acrylate, or the compound of Comparative Example 1, i.e., sodium (E)-2-(5-((2,4,6-trimethoxystyrylsulfonyl)methyl)-2-methoxyphenylamino) acetate (rigosertib) was added at different concentrations over a 4 log dilution (0.001 to 10 μM). The total number of viable cells was determined after 96 hours of continuous treatment by staining with trypan blue and counting the number of non-staining cells (viable) remaining in each well using a hemacytometer. The percentage of viable cells remaining was calculated as follows: # viable cells (compound treated)/# viable cells (DMSO treated)*100. The GI50 (the concentration of drug resulting in 50% net loss of growth inhibition) was determined.
# MOLT-4 = assay: Cytotoxicity assay (viable cell count, trypan blue), MOLT-4; details: MOLT-4, T-Cell Lymphoma, 96 hours continuous treatment
# Protocol: as §1
# Caov-3 = assay: Cytotoxicity assay (viable cell count, trypan blue), Caov-3; details: Caov-3, Ovarian, 96 hours continuous treatment
# Protocol: as §1
# MIA-PaCa-2 = assay: Cytotoxicity assay (viable cell count, trypan blue), MIA-PaCa-2; details: MIA-PaCa-2, Pancreatic, 96 hours continuous treatment
# Protocol: as §1
# HT-29 = assay: Cytotoxicity assay (viable cell count, trypan blue), HT-29; details: HT-29, Colo-Rectal, 96 hours continuous treatment
# Protocol: as §1
# DU145 = assay: Cytotoxicity assay (viable cell count, trypan blue), DU145; details: DU145, Prostate, 96 hours continuous treatment
# Protocol: as §1
# K562 = assay: Cytotoxicity assay (viable cell count, trypan blue), K562; details: K562, Chronic Myelogenous Leukemia, 96 hours continuous treatment
# Protocol: as §1
# WM1617 = assay: Cytotoxicity assay (viable cell count, trypan blue), WM1617; details: WM1617, Melanoma; 96 hours continuous treatment
# Protocol: as §1
# RS4; 11 = assay: Cytotoxicity assay (viable cell count, trypan blue), RS4; 11; details: 96 hours continuous treatment
# Protocol: as §1
# MDA-MB-231 = assay: Cytotoxicity assay (viable cell count, trypan blue), MDA-MB-231; details: MDA-MB-231, Breast, 96 hours continuous treatment
# Protocol: as §1
# Z1385 = assay: Cytotoxicity assay (viable cell count, trypan blue), Z1385; details: Z1385, Mantle Cell Lymphoma; 96 hours continuous treatment
# Protocol: as §1
# N417 = assay: Cytotoxicity assay (viable cell count, trypan blue), N417; details: N417, Small Cell Lung Carcinoma; 96 hours continuous treatment
# Protocol: as §1
# T-24 = assay: Cytotoxicity assay (viable cell count, trypan blue), T-24; details: T-24, Bladder, 96 hours continuous treatment
# Protocol: as §1
# GRANTA-519 = assay: Cytotoxicity assay (viable cell count, trypan blue), GRANTA-519; details: GRANTA-519, Mantle Cell Lymphoma, 96 hours continuous treatment
# Protocol: as §1
# A549 = assay: Cytotoxicity assay (viable cell count, trypan blue), A549; details: A549, Non-Small Cell Lung Carcinoma, 96 hours continuous treatment
# Protocol: as §1
# HCT-15 = assay: Cytotoxicity assay (viable cell count, trypan blue), HCT-15; details: HCT-15, Colo-Rectal, 96 hours continuous treatment
# Protocol: as §1
# DAUDI = assay: Cytotoxicity assay (viable cell count, trypan blue), DAUDI; details: B-Cell Lymphoma, 96 hours continuous treatment
# Protocol: as §1
# PC-3 = assay: Cytotoxicity assay (viable cell count, trypan blue), PC-3; details: PC-3, Prostate, 96 hours continuous treatment
# Protocol: as §1
# H1299 = assay: Cytotoxicity assay (viable cell count, trypan blue), H1299; details: H1299, Non-Small Cell Lung Carcinoma, 96 hours continuous treatment
# Protocol: as §1
# 2008 = assay: Cytotoxicity assay (viable cell count, trypan blue), 2008; details: 2008, Ovarian; 96 hours continuous treatment
# Protocol: as §1
# HCT-116 = assay: Cytotoxicity assay (viable cell count, trypan blue), HCT-116; details: HCT-116, Colo-Rectal, 96 hours continuous treatment
# Protocol: as §1
# 5367 = assay: Cytotoxicity assay (viable cell count, trypan blue), 5367; details: 5367, Bladder; 96 hours continuous treatment
# Protocol: as §1
# CEM = assay: Cytotoxicity assay (viable cell count, trypan blue), CEM; details: T-Cell Lymphoma, 96 hours continuous treatment
# Protocol: as §1
# UM-UC-3 = assay: Cytotoxicity assay (viable cell count, trypan blue), UM-UC-3; details: UM-UC-3, Bladder, 96 hours continuous treatment
# Protocol: as §1
# [1] = system: K562 (chronic myelogenous leukaemia); assay: Cytotoxicity assay, K562 tumor cells; details: Homo sapiens, 96 hours treatment
# Protocol: (§2) The effect of the compounds of the invention on tumor cells was determined by the assay described by Latham et al., Oncogene 12:827-837 (1996). Tumor cells K562 (chronic myelogenous leukaemia) or DU145 (prostate cancer) were plated in 12-well dishes at a cell density of 2.5×10^4 cells well. The plated cells were treated 24 hours later with a compound of the invention dissolved in DMSO at multiple concentrations ranging from 0.001 to 10 μM. The plates were examined 96 hours later under an inverted microscope, Olympus CK-2 using a 10× objective, and compound activity was noted by physical observation. When necessary, the total number of viable cells was determined by trypsinizing the wells and counting the number of viable cells, as determined by trypan blue exclusion, using a hemacytometer.
# DU145 (prostate cancer) = assay: Cytotoxicity assay, DU145 tumor cells; details: Homo sapiens, DU-145, 96 hours treatment
# Protocol: as §2
structure (smiles),measurement,setting,value
"CCOC(=O)/C=C\Nc1cc(CS(=O)(=O)/C=C/c2c(OC)cc(OC)cc2OC)ccc1OC [(Z)-ethyl 3-((2-methoxy-5-(((E)-2,4,6-trimethoxystyrylsulfonyl)methyl)phenyl)amino)acrylate]",fold more cytotoxic than Rigosertib,tumor cell lines; across a wide range of tumor cell lines,10-100 fold
"COc1cc(OC)c(/C=C/S(=O)(=O)Cc2ccc(OC)c(NCC(=O)O)c2)c(OC)c1 [Comparative Example 1, Sodium (E)-2-(5-((2,4,6-trimethoxystyrylsulfonyl)methyl)-2-methoxyphenylamino) acetate, reference compound]",GI50,MOLT-4,40 nM
same,GI50,Caov-3,150 nM
same,GI50,MIA-PaCa-2,150 nM
same,GI50,HT-29,250 nM
same,GI50,DU145,150 nM
same,GI50,K562,120 nM
same,GI50,WM1617,300 nM
same,GI50,"RS4; 11; 11, ALL-B-Cell Precursor",75 nM
same,GI50,MDA-MB-231,90 nM
same,GI50,Z1385,40 nM
same,GI50,N417,100 nM
same,GI50,T-24,70 nM
same,GI50,GRANTA-519,40 nM
same,GI50,A549,75 nM
same,GI50,HCT-15,200 nM
same,GI50,DAUDI,75 nM
same,GI50,PC-3,75 nM
same,GI50,H1299,200 nM
same,GI50,2008,100 nM
same,GI50,HCT-116,100 nM
same,GI50,5367,100 nM
same,GI50,CEM,40 nM
same,GI50,UM-UC-3,50 nM
"CCOC(=O)/C=C\Nc1cc(CS(=O)(=O)/C=C/c2c(OC)cc(OC)cc2OC)ccc1OC [Ex. 1, (Z)-ethyl 3-((2-methoxy-5-(((E)-2,4,6-trimethoxystyrylsulfonyl)methyl)phenyl)amino) acrylate]",GI50,MOLT-4; Homo sapiens,7.5 nM
same,fold more active than the Comparative Example 1 compound,"tumor cell lines; across the cell lines of Table 18, against some tumor types as much as 10-fold or even 100-fold",at least 4 fold
same,GI50,Caov-3; Homo sapiens,4 nM
same,GI50,MIA-PaCa-2; Homo sapiens,5 nM
same,GI50,HT-29; Homo sapiens,15 nM
same,GI50,"DU145; Homo sapiens, DU-145",10 nM
same,GI50,K562; Homo sapiens,3 nM
same,GI50,WM1617,3 nM
same,GI50,"RS4; 11; Homo sapiens, 11, ALL-B-Cell Precursor",7.5 nM
same,GI50,MDA-MB-231; Homo sapiens,7.5 nM
same,IC50,[1],0.002 µM
same,GI50,Z1385,6 nM
same,GI50,N417,8 nM
same,GI50,T-24; Homo sapiens,4 nM
same,GI50,GRANTA-519; Homo sapiens,6 nM
same,GI50,A549; Homo sapiens,7.5 nM
same,GI50,HCT-15; Homo sapiens,7.5 nM
same,GI50,DAUDI; Homo sapiens,7.5 nM
same,IC50,DU145 (prostate cancer),0.006 µM
same,GI50,PC-3; Homo sapiens,7.5 nM
same,GI50,"H1299; Homo sapiens, NCI-H1299",4 nM
same,GI50,2008,6 nM
same,GI50,HCT-116; Homo sapiens,7.5 nM
same,GI50,5367,3 nM
same,GI50,"CEM; Homo sapiens, CCRF-CEM",7.5 nM
same,GI50,"UM-UC-3; Homo sapiens, UMUC3",3 nM
"C=CC(=O)Nc1cc(CS(=O)(=O)/C=C/c2c(OC)cc(OC)cc2OC)ccc1OC [Ex. 201, (E)-N-(2-methoxy-5-(((2,4,6-trimethoxystyryl)sulfonyl)methyl)phenyl)acrylamide]",IC50,[1],0.75 µM
same,IC50,DU145 (prostate cancer),0.75 µM
